Data reported in patent US20230028414A1, “DOSING REGIMEN OF KRAS G12C INHIBITOR” (AMGEN INC., priority 2019, published 2023).

What was measured:
[1] = Phase 1 pharmacokinetics of Compound A at 960 mg once daily; format: in vivo, human; conditions: patients
[2] = tested on: other tumor types (appendiceal cancer, unknown primary cancer); test: Phase 1 tumor response by RECIST 1.1, patients with other tumor types; format: in vivo, human; conditions: 2 evaluable patients with appendiceal cancer
Description: A complete response (CR) is disappearance of all target lesions and any pathological lymph nodes have a reduction in short axis to less than 10 mm. A partial response (PR) is at least a 30% decrease in the sum of diameters of target lesions, taking as reference the baseline sum diameters. A progressive disease is at least a 20% increase in the sum of diameters of target lesions, taking as reference the smallest sum on study (including the baseline sum if that is the smallest on study), and there must be an absolute increase of at least 5 mm in addition to the relative increase of 20%. A stable disease is neither sufficient shrinkage to qualify for PR nor sufficient increase to qualify for PD. […] The tumor size can be measured by radiographic scan.
FIG. 2. […] Target lesions are measurable lesions defined by RECIST 1.1. Non-measurable lesions, as defined by RECIST 1.1, are considered non-target lesions. A PR is defined as at least a 30% decrease in the sum of the diameters of target lesions using the baseline sum of diameters as a reference. […]
As of the data cutoff of Jul. […] The tumor types of two patients were re-classified after the cutoff: 1 patient who was initially recorded as having NSCLC had unknown primary cancer, and 1 patient who was initially recorded as having other tumor types had NSCLC. […]
Tumor response was evaluated using RECIST 1.1. […]

[3] = Phase 1 safety and treatment exposure, all enrolled patients; format: in vivo
Description: A subject undergoing a therapy is monitored for adverse events (AE) during the course of the therapy. A treatment related AE is an AE that is related to the treatment drug. A treatment emergent AE is one that a subject develops undergoing the treatment that was not present prior to start of therapy. In some cases, the treatment emergent AE is not or suspected not to be related to the treatment itself. AEs are characterized as one of five grades—grade 1 is a mile AE; grade 2 is a moderate AE; grade 3 is a severe AE; grade 4 is a life-threatening or disabling AE; and grade 5 is death related to AE.
The grading of AEs is based on the guidelines provided in the CTCAE version 5.0. AEs for DLT assessment:
Hematological toxicity: Febrile neutropenia; Neutropenic infection; Grade 4 neutropenia; Grade≥3 thrombocytopenia for>7 days; Grade 3 thrombocytopenia with grade≥2 bleeding; Grade 4 thrombocytopenia; Grade 4 Anemia Non-hematological toxicity Grade≥4, vomiting or diarrhea; Grade 3 diarrhea or grade 3 vomiting lasting more than 3 days despite optimal medical support; Grade≥3 nausea for 3 days or more despite optimal medical support; Any other grade≥3 AE

[4] = tested on: KRAS p.G12C tumors; test: Preclinical anti-tumor efficacy; format: in vivo; conditions: immune-competent mice
Description: KRAS is the most frequently mutated oncogene in human cancer and encodes a key signaling protein in tumors.

[5] = 76 enrolled patients, all doses

C=CC(=O)N1CCN(c2nc(=O)n(-c3c(C)ccnc3C(C)C)c3nc(-c4c(O)cccc4F)c(F)cc23)[C@@H](C)C1 [Compound A, 4-((S)-4-acryloyl-2-methylpiperazin-1-yl)-6-fluoro-7-(2-fluoro-6-hydroxyphenyl)-1-(2-isopropyl-4-methylpyridin-3-yl)pyrido[2,3-d]pyrimidin-2(1H)-one]
24-hour area under the curve [1]: 65300 ng·h/mL | time of peak exposure after administration [1]: around 2 hours | tumor response [2]: PR (unconfirmed) and SD | deaths related to treatment ([3]; 7 deaths among 76 enrolled patients): none | patients with treatment-related grade 3 AEs [3, 5]: 7 patients | patients with treatment-related grade 3 AEs, percent [3, 5]: 9.2% | tolerability ([3]; consistent across all doses): well tolerated with mild treatment-related toxicities | treatment-related AEs higher than grade 3 or cumulative toxicities ([3]; extended treatment, all doses): no treatment-related AEs higher than grade 3 or cumulative toxicities were observed | anti-tumor effect in combination with immune checkpoint inhibition [4]: durable cures
